According to patent US8012975B2, “Antitumoral analogs of ET-743” (Pharma Mar, S.A., priority 2000, dated 2011):
Read-outs that look alike come from different tables or passages of the source.

Columns and labels:
P-388 [1] = system: P-388
MEL-28 [2] = system: MEL-28
A-549 [3] = system: A-549
in vitro = settings: African green monkey
P-388 [4] = assay: Cytotoxic activity IC50, P-388; settings: Mus musculus, P388, read-out: CYTOTOXIC ACTIVITIY IC50 (μM) P-388
A-549 [5] = assay: Cytotoxic activity IC50, A-549; settings: Homo sapiens, A549, read-out: CYTOTOXIC ACTIVITIY IC50 (μM) A-549, A-549
MEL-28 [6] = assay: Cytotoxic activity IC50, MEL-28; settings: Homo sapiens, SK-MEL-28, read-out: CYTOTOXIC ACTIVITIY IC50 (μM) MEL-28, MEL-28

Compound | IC50 (P-388 [1]) [nM] | IC50 (HT-29) [nM] | IC50 (MEL-28 [2]) [nM] | IC50 (A-549 [3]) [nM] | IC50 (DU-145) [nM] | further results
CCCC(=O)OC[C@H]1c2c(c(OC(C)=O)c(C)c3c2OCO3)CC2[C@H]3c4c(cc(C)c(OC)c4OCOC)C[C@@H]([C@H](C#N)N21)N3C (stereo partly drawn) [drawing 152] | 0.1 | – | – | – | – | IC50 (HT-29; human): 0.8 nM; IC50 (MEL-28 [2]; human): 0.8 nM; IC50 (A-549 [3]; human): 0.8 nM; IC50 (DU-145; human): 0.8 nM
COc1c(C)cc2c(c1O)[C@@H]1C3Cc4c(OC(C)=O)c(C)c5c(c4[C@H](CNC(=O)Cc4ccccc4)N3[C@@H](C#N)[C@H](C2)N1C)OCO5 (stereo partly drawn) | 0.1 | 0.1 | 0.1 | 0.1 | 0.1 | –
CCC(=O)NC[C@H]1c2c(c(OC(C)=O)c(C)c3c2OCO3)CC2[C@H]3c4c(cc(C)c(OC)c4O)C[C@@H]([C@H](C#N)N21)N3C (stereo partly drawn) | 0.1 | 0.1 | 0.1 | 0.1 | 0.1 | –
COc1c(C)cc2c(c1O)[C@@H]1C3Cc4c(OC(C)=O)c(C)c5c(c4[C@H](COC(=O)/C=C/c4cccc(C(F)(F)F)c4)N3[C@@H](O)[C@H](C2)N1C)OCO5 (stereo partly drawn) [drawing 157] | 0.1 | 0.1 | 0.1 | 0.1 | 0.1 | –
COc1c(C)cc2c(c1O)[C@@H]1C3Cc4c(OC(C)=O)c(C)c5c(c4[C@H](CNC(=O)CCc4ccccc4)N3[C@@H](O)[C@H](C2)N1C)OCO5 (stereo partly drawn) [drawing 123] | 0.1 | 0.1 | 0.1 | 0.1 | 0.1 | –
COc1c(C)cc2c(c1O)[C@@H]1C3Cc4c(OC(C)=O)c(C)c5c(c4[C@H](CNC(=O)[C@H](C)NC(=O)C(F)(F)F)N3[C@@H](C#N)[C@H](C2)N1C)OCO5 (stereo partly drawn) | 0.1 | 0.1 | 0.1 | 0.1 | 0.1 | –
COC1=C(C)C(=O)C2=C(C1=O)[C@H](CNC(=O)C(C)N)N1C(C2)[C@H]2c3c(cc(C)c(OC)c3O)C[C@@H]([C@@H]1C#N)N2C (stereo partly drawn) | – | – | – | – | – | IC50 (in vitro): 23 nM
CCCC(=O)OC[C@H]1c2c(c(OC(C)=O)c(C)c3c2OCO3)CC2[C@H]3c4c(cc(C)c(OC)c4OCOC)C[C@@H]([C@H](C#N)N21)N3C (stereo partly drawn) [drawing 148] | – | – | – | – | – | IC50 (HT-29; human): 100 nM; IC50 (MEL-28 [2]; human): 100 nM; IC50 (P-388 [4]): 0.1 µM; IC50 (A-549 [3]; human): 100 nM; IC50 (DU-145; human): 100 nM
COc1c(C)cc2c(c1O)[C@@H]1C3Cc4c(OC(C)=O)c(C)c5c(c4[C@H](CNC(=O)[C@H](C)NC(=O)Cc4ccccc4)N3[C@@H](C#N)[C@H](C2)N1C)OCO5 (stereo partly drawn) | 0.1 | 0.1 | 0.1 | 0.1 | 0.1 | –
COc1c(C)cc2c(c1O)[C@@H]1C3Cc4c(OC(C)=O)c(C)c5c(c4[C@H](CNC(=O)/C=C/c4ccccc4)N3[C@@H](O)[C@H](C2)N1C)OCO5 (stereo partly drawn) [drawing 113] | 0.1 | 0.1 | 0.1 | 0.1 | 0.1 | –
COc1c(C)cc2c(c1O)[C@@H]1C3Cc4c(OC(C)=O)c(C)c5c(c4[C@H](COC(=O)/C=C/c4ccccc4)N3[C@@H](O)[C@H](C2)N1C)OCO5 (stereo partly drawn) [drawing 159] | 0.1 | – | – | – | – | –
C=CCOC(=O)Oc1c(C)c2c(c3c1CC1[C@H]4c5c(cc(C)c(OC)c5O)C[C@@H]([C@H](C#N)N1[C@H]3CNC(=O)CCc1ccccc1)N4C)OCO2 (stereo partly drawn) | 0.1 | 0.1 | 0.1 | 0.1 | 0.1 | –
CCCCCC(=O)NC[C@H]1c2c(c(OC(C)=O)c(C)c3c2OCO3)CC2[C@H]3c4c(cc(C)c(OC)c4O)C[C@@H]([C@H](C#N)N21)N3C (stereo partly drawn) [drawing 126] | 0.1 | – | – | – | – | –
CCCC(=O)NC[C@H]1c2c(c(OC(C)=O)c(C)c3c2OCO3)CC2[C@H]3c4c(cc(C)c(OC)c4O)C[C@@H]([C@H](O)N21)N3C (stereo partly drawn) [drawing 114] | – | 0.1 | – | – | 0.1 | IC50 (A-549 [5]): 0.0008 µM; IC50 (P-388 [4]): 0.0008 µM; IC50 (MEL-28 [6]): 0.0008 µM
C/C=C(\OC(C)=O)C1=C(C2=COCO2)[C@H](CNC(=O)CCC)N2C(C1)[C@H]1c3c(cc(C)c(OC)c3O)C[C@@H]([C@@H]2C#N)N1C (stereo partly drawn) | 0.1 | 0.1 | 0.1 | 0.1 | 0.1 | –
COc1c(C)cc2c(c1O)[C@@H]1C3Cc4c(O)c(C)c5c(c4[C@H](CN4C(=O)c6ccccc6C4=O)N3[C@@H](C#N)[C@H](C2)N1C)OCO5 (stereo partly drawn) | – | – | – | – | – | IC50 (in vitro): 1 nM
COc1c(C)cc2c(c1O)[C@@H]1C3Cc4c(OC(C)=O)c(C)c5c(c4[C@H](COC(=O)CCc4ccccc4)N3[C@@H](O)[C@H](C2)N1C)OCO5 (stereo partly drawn) [drawing 158] | 0.1 | 0.1 | 0.1 | 0.1 | 0.1 | –
